Reference: US20020137929A1, “1 - (3-heterocyclylphenyl) isothiourea, -isourea, -guanidine and -amidine herbicidal agents” (Intellectual Property Department, BASF Aktiengesellschaft, priority 1998, published 2002)

Assays:
MOOVA (Monochoria) = assay: Preemergence weed control under flooded paddy conditions; type: in vivo, Monochoria vaginalis; settings: rated 3-4 weeks after treatment
Outline: (§1)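 Silt loam, seeds in top 0.5 cm; flood held 1.5-3 cm; test cpd as acetone/water 50/50 into flood water, ~0.0313-0.500 kg/ha a.i.; greenhouse 3-4 wk; visual 0-9 score vs control.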

CASOB (Sicklepod) [1] = assay: Postemergence herbicidal evaluation; type: in vivo, Cassia obtusifolia; settings: postemergence
Outline: (§2)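 Seedlings grown about two weeks were sprayed at 40 psi with compound dispersed in 50/50 acetone/water plus 0.5% TWEEN 20, at about 0.0156 to 0.500 kg/ha. Plants were kept in the greenhouse and scored 4–5 weeks later on a 0–9 visual scale against untreated controls.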

[2] = test system: GLXMAW (Soybean, Williams); assay: Preemergence herbicidal evaluation; type: in vivo, Glycine max, (L.) Merr. cv Williams; settings: rated 4-5 weeks after treatment, rating scale 0-9
Outline: (§3)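 Scores use a 0–9 visual scale covering stand, vigor, malformation, size and chlorosis relative to controls, rated four to five weeks after treatment. Before emergence, soil-planted seeds were sprayed with compound in aqueous acetone at roughly 0.0156–0.500 kg/ha and held in the greenhouse.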

[3] = test system: CHEAL (Lambsquarters, Common); assay: Postemergence herbicidal evaluation; type: in vivo, Chenopodium album; settings: postemergence
Outline: as §2

CASOB (Sicklepod) [4] = assay: Preemergence herbicidal evaluation; type: in vivo, Cassia obtusifolia; settings: rated 4-5 weeks after treatment, rating scale 0-9
Outline: as §3

[5] = test system: GLXMAW (Soybean, Williams); assay: Postemergence herbicidal evaluation; type: in vivo, Glycine max, (L.) Merr. cv Williams; settings: postemergence
Outline: as §2

AMBEL (Ragweed, Common) [6] = assay: Preemergence herbicidal evaluation; type: in vivo, Ambrosia artemisifolia; settings: rated 4-5 weeks after treatment, rating scale 0-9
Outline: as §3

ORYSAT (Rice, Tebonnet) = assay: Preemergence herbicidal evaluation; type: in vivo, Oryza sativa, (L.) Tebonnet; settings: rated 4-5 weeks after treatment, rating scale 0-9
Outline: as §3

ABUTH (Velvetleaf) = assay: Preemergence herbicidal evaluation; type: in vivo, Abutilon theophrasti; settings: rated 4-5 weeks after treatment, rating scale 0-9
Outline: as §3

AMBEL (Ragweed, Common) [7] = assay: Postemergence herbicidal evaluation; type: in vivo, Ambrosia artemisifolia; settings: postemergence
Outline: as §2

[8] = test system: IPOHE (Morningglory, Ivyleaf); assay: Preemergence herbicidal evaluation; type: in vivo, Ipomoea hederacea; settings: rated 4-5 weeks after treatment, rating scale 0-9
Outline: as §3

[9] = test system: SAGPY (Arrowhead (Pygmaea)); assay: Preemergence weed control under flooded paddy conditions; type: in vivo, Sagittaria pygmaea; settings: rated 3-4 weeks after treatment
Outline: as §1

[10] = test system: IPOHE (Morningglory, Ivyleaf); assay: Postemergence herbicidal evaluation; type: in vivo, Ipomoea hederacea; settings: postemergence
Outline: as §2

[11] = test system: CHEAL (Lambsquarters, Common); assay: Preemergence herbicidal evaluation; type: in vivo, Chenopodium album; settings: rated 4-5 weeks after treatment, rating scale 0-9
Outline: as §3

ECHCG (Barnyardgrass) = assay: Postemergence herbicidal evaluation; type: in vivo, Echinochloa crus-galli; settings: postemergence
Outline: as §2

[12] = test system: TRZAWR (Wheat, Winter, cv Riband); assay: Postemergence herbicidal evaluation; type: in vivo, Triticum aestivum; settings: postemergence
Outline: as §2

Cn1c(C(F)(F)F)cc(=O)n(-c2cc(N=C3SCC(=O)N3Cc3ccc(Cl)c(Cl)c3)c(Cl)cc2F)c1=O [Compound 144, 3-{4-Chloro-5-{[3-(3,4-dichlorobenzyl)-4-oxo-2-thiazolidinylidene]amino}-2-fluorophenyl}-1-methyl-6-(trifluoromethyl)-2,4(1H,3H)-pyrimidinedione]
herbicidal effect rating, MOOVA (MOOVA (Monochoria); 0.0313 kg/ha): 6.0
herbicidal effect rating, MOOVA (MOOVA (Monochoria); 0.0625 kg/ha): 9.0
herbicidal effect rating, MOOVA (MOOVA (Monochoria); 0.1250 kg/ha): 9.0
herbicidal effect rating, MOOVA (MOOVA (Monochoria); 0.2500 kg/ha): 9.0
Herbicidal rating CASOB (CASOB (Sicklepod) [1]; rate 0.0156 kg/ha): 3.0
Herbicidal rating CASOB (CASOB (Sicklepod) [1]; rate 0.0313 kg/ha): 5.0
Herbicidal rating CASOB (CASOB (Sicklepod) [1]; rate 0.0625 kg/ha): 7.0
Preemergence herbicidal rating GLXMAW ([2]; rate 0.0156 kg/ha): 0.0
Preemergence herbicidal rating GLXMAW ([2]; rate 0.0313 kg/ha): 0.0
Preemergence herbicidal rating GLXMAW ([2]; rate 0.0625 kg/ha): 0.0
Preemergence herbicidal rating GLXMAW ([2]; rate 0.1250 kg/ha): 0.0
Preemergence herbicidal rating GLXMAW ([2]; rate 0.2500 kg/ha): 0.0
Herbicidal rating CHEAL ([3]; rate 0.0156 kg/ha): 7.0
Herbicidal rating CHEAL ([3]; rate 0.0313 kg/ha): 9.0
Herbicidal rating CHEAL ([3]; rate 0.0625 kg/ha): 9.0
Preemergence herbicidal rating CASOB (CASOB (Sicklepod) [4]; rate 0.0156 kg/ha): 0.0
Preemergence herbicidal rating CASOB (CASOB (Sicklepod) [4]; rate 0.0313 kg/ha): 0.0
Preemergence herbicidal rating CASOB (CASOB (Sicklepod) [4]; rate 0.0625 kg/ha): 0.0
Preemergence herbicidal rating CASOB (CASOB (Sicklepod) [4]; rate 0.1250 kg/ha): 1.0
Preemergence herbicidal rating CASOB (CASOB (Sicklepod) [4]; rate 0.2500 kg/ha): 2.0
Herbicidal rating GLXMAW ([5]; rate 0.0156 kg/ha): 5.0
Herbicidal rating GLXMAW ([5]; rate 0.0313 kg/ha): 5.5
Herbicidal rating GLXMAW ([5]; rate 0.0625 kg/ha): 6.5
Preemergence herbicidal rating AMBEL (AMBEL (Ragweed, Common) [6]; rate 0.0156 kg/ha): 0.0
Preemergence herbicidal rating AMBEL (AMBEL (Ragweed, Common) [6]; rate 0.0313 kg/ha): 0.0
Preemergence herbicidal rating AMBEL (AMBEL (Ragweed, Common) [6]; rate 0.0625 kg/ha): 0.0
Preemergence herbicidal rating AMBEL (AMBEL (Ragweed, Common) [6]; rate 0.1250 kg/ha): 4.0
Preemergence herbicidal rating AMBEL (AMBEL (Ragweed, Common) [6]; rate 0.2500 kg/ha): 7.0
Preemergence herbicidal rating ORYSAT (ORYSAT (Rice, Tebonnet); rate 0.0156 kg/ha): 0.0
Preemergence herbicidal rating ORYSAT (ORYSAT (Rice, Tebonnet); rate 0.0313 kg/ha): 0.0
Preemergence herbicidal rating ORYSAT (ORYSAT (Rice, Tebonnet); rate 0.0625 kg/ha): 0.0
Preemergence herbicidal rating ORYSAT (ORYSAT (Rice, Tebonnet); rate 0.1250 kg/ha): 0.0
Preemergence herbicidal rating ORYSAT (ORYSAT (Rice, Tebonnet); rate 0.2500 kg/ha): 0.0
Preemergence herbicidal rating ABUTH (ABUTH (Velvetleaf); rate 0.0156 kg/ha): 0.0
Preemergence herbicidal rating ABUTH (ABUTH (Velvetleaf); rate 0.0313 kg/ha): 0.0
Preemergence herbicidal rating ABUTH (ABUTH (Velvetleaf); rate 0.0625 kg/ha): 0.0
Preemergence herbicidal rating ABUTH (ABUTH (Velvetleaf); rate 0.1250 kg/ha): 9.0
Preemergence herbicidal rating ABUTH (ABUTH (Velvetleaf); rate 0.2500 kg/ha): 9.0
Herbicidal rating AMBEL (AMBEL (Ragweed, Common) [7]; rate 0.0156 kg/ha): 7.0
Herbicidal rating AMBEL (AMBEL (Ragweed, Common) [7]; rate 0.0313 kg/ha): 9.0
Herbicidal rating AMBEL (AMBEL (Ragweed, Common) [7]; rate 0.0625 kg/ha): 9.0
Preemergence herbicidal rating IPOHE ([8]; rate 0.0156 kg/ha): 0.0
Preemergence herbicidal rating IPOHE ([8]; rate 0.0313 kg/ha): 0.0
Preemergence herbicidal rating IPOHE ([8]; rate 0.0625 kg/ha): 0.0
Preemergence herbicidal rating IPOHE ([8]; rate 0.1250 kg/ha): 0.0
Preemergence herbicidal rating IPOHE ([8]; rate 0.2500 kg/ha): 1.0
herbicidal effect rating, SAGPY ([9]; 0.0313 kg/ha): 0.0
herbicidal effect rating, SAGPY ([9]; 0.0625 kg/ha): 0.0
herbicidal effect rating, SAGPY ([9]; 0.1250 kg/ha): 2.0
herbicidal effect rating, SAGPY ([9]; 0.2500 kg/ha): 4.0
Herbicidal rating IPOHE ([10]; rate 0.0156 kg/ha): 9.0
Herbicidal rating IPOHE ([10]; rate 0.0313 kg/ha): 9.0
Herbicidal rating IPOHE ([10]; rate 0.0625 kg/ha): 9.0
Preemergence herbicidal rating CHEAL ([11]; rate 0.0156 kg/ha): 6.0
Preemergence herbicidal rating CHEAL ([11]; rate 0.0313 kg/ha): 7.0
Preemergence herbicidal rating CHEAL ([11]; rate 0.0625 kg/ha): 9.0
Preemergence herbicidal rating CHEAL ([11]; rate 0.1250 kg/ha): 9.0
Preemergence herbicidal rating CHEAL ([11]; rate 0.2500 kg/ha): 9.0
Herbicidal rating ECHCG (ECHCG (Barnyardgrass); rate 0.0156 kg/ha): 2.0
Herbicidal rating ECHCG (ECHCG (Barnyardgrass); rate 0.0313 kg/ha): 3.0
Herbicidal rating ECHCG (ECHCG (Barnyardgrass); rate 0.0625 kg/ha): 4.0
Herbicidal rating TRZAWR ([12]; rate 0.0156 kg/ha): 3.5
Herbicidal rating TRZAWR ([12]; rate 0.0313 kg/ha): 3.5
Herbicidal rating TRZAWR ([12]; rate 0.0625 kg/ha): 4.0
